Data taken from US4356167A, “Liposome drug delivery systems” (Sandoz, Inc., priority 1981, dated 1982).
Values joined by “and” are separate entries in the source; they are usually repeats but may differ in a detail not shown here. Equal entries are not always repeated.

Tested on: blood glucose
Assay: Blood glucose levels in mice after oral or i.m. dosing of insulin liposomes (Example 2)
Assay type: in vivo
Settings: 10μ/kg
Experimental: Insulin concentration of the liposomes was 11.69%. Suspensions of the liposome compositions A and B were given orally to mice at concentrations of A-50 U/0.1 ml/10 gms. of body weight; and B-25 U/0.1 ml/10 gms of body weight. A control group received 0.5% carboxymethyl cellulose concurrently.
Composition A was diluted 1:10 for injection i.m. as a control.
After two and four hours the animals were sacrificed by anesthetizing with 85 mg/kg of sodium hexobarbital i.p. and collecting blood via cardiac puncture. The collected blood was placed in an Auto Analyzer Cup containing 0.025 cc. of heparin 1000 units/ml. The blood samples were capped, shaken, and kept in an ice bucket. Glucose was determined by the Auto Analyzer potassium ferriccyanide method No. N-2b.
Carboxymethyl cellulose given either by p.o. or i.m. route has the same effect on blood glucose. Therefore, the test materials whether given p.o. or i.m. can be related to the carboxymethyl cellulose control.

Bovine Pancreatic Insulin: Bovine pancreatic insulin, Sigma Chemical
% Δ blood glucose 2 Hrs. Post (down arrow, decrease vs control) (2 hrs): 82%
Blood glucose levels 2 Hrs. Post, individual animals (2 hrs): 14 MG/100 ml and 12 MG/100 ml and 16 MG/100 ml
Blood glucose levels 2 Hrs. Post, mean (2 hrs): 14.0 ± 8 MG/100 ml
% Δ blood glucose 4 Hrs. Post (down arrow, decrease vs control) (4 hrs): 75%
Blood glucose levels 4 Hrs. Post, individual animals (4 hrs): 37 MG/100 ml and 10 MG/100 ml and 27 MG/100 ml and 31 MG/100 ml
Blood glucose levels 4 Hrs. Post, mean (4 hrs): 26.3 MG/100 ml
